Data from US20100311674A1, “PHARMACEUTICAL COMPOSITIONS WITH A MECHANISM OF MULTI-TARGET RECEPTOR RETROACTION FOR TREATING DEPRESSION” (Yu-Fen Chi, priority 2007, published 2010).

Legend:
Format in all cases: in vivo
ICR mice [1] = test: Mouse tail-hanging experiment (Experiment 1)
Experimental: 1.1 Experimental animals: ICR mice, male, 22.0±2 g of body weight, secondary, are provided by the Experimental Animal Science Department of Capital Medical University, Beijing. 1.2 Experiment pharmaceuticals: The pharmaceutical of Embodiment 1 is provided by Beijing Wonner Biotech. […] High dose of Embodiment 1 (80 mg/kg/d); 2. middle dose of Embodiment 1 (40 mg/kg/d); and 3. low dose of Embodiment 1 (20 mg/kg/d). 1.5.1 Group division and administration of drug: The mice are grouped randomly, and 10 mice are in each group. 1. High dose of Embodiment 1 (80 mg/kg, per oral (P.O.), administered for 7 days); 2. middle dose of Embodiment 1 (40 mg/kg, P.O., administered for 7 days); 3. low dose of Embodiment 1 (20 mg/kg, P.O., administered for 7 days); 4. […] After 1 hour of the last administration of drug, the mouse tail-hanging experiment is proceeded. 1.5.2 Experimental method: The mouse's tail (1 cm to the tail end) is taped on the wood strip higher than the platform for 5 cm and hung up for 6 minutes. The time of non-movement of the mouse for the last 5 minutes is recorded. 1.5.3 Statistic calculation: The experimental data are represented as X±SD, and the experimental result is calculated as analysis of variance (ANOVA) by SPSS 11.5 statistic software.

ICR mice [2] = test: Resetpine-induced mouse body temperature decrease experiment (Experiment 4)
From the text: 4.1 Experimental animals: ICR mice, male, 22.0±2 g of body weight, secondary, are provided by the Experimental Animal Science Department of Capital Medical University, Beijing.
4.2 Experiment pharmaceuticals: The pharmaceutical of Embodiment 2 is provided by Beijing Wonner Biotech. Ltd. Co., Paroxetine (Paxil) is the product of Zhong Mei Tianjin Smith Kline pharmaceuticals Co. Ltd., and Resetpine is the product of Guangdong BangMin Pharmaceutical Co., Ltd.
4.4 Dose designs: 1. High dose of Embodiment 2 (80 mg/kg/d); 2. middle dose of Embodiment 2 (40 mg/kg/d); and 3. low dose of Embodiment 2 (20 mg/kg/d).
4.5.1 Group division and administration of drug: The mice are grouped randomly, and 10 mice are in each group. 1. High dose of Embodiment 2 (80 mg/kg, P.O., administered for 7 days); 2. middle dose of Embodiment 2 (40 mg/kg, P.O., administered for 7 days); 3. low dose of Embodiment 2 (20 mg/kg, P.O., administered for 7 days); 4.
4.5.2 Experimental method: After 1 hour of the last administration of drug on the eighth day, the mouse's anal temperature is determined. […] After 4 hours of injecting Resetpine, the mouse's anal temperature is determined once again. […]
4.5.3 Statistic calculation: The experimental data are represented as X±SD, and the experimental result is calculated as ANOVA by SPSS 11.5 statistic software.

ICR mice [3] = test: Mouse tail-hanging experiment (Experiment 9)
Experimental: 9.1 Experiment pharmaceuticals: The pharmaceutical of Embodiment 5 is provided by Beijing Wonner Biotech. […] Above-mentioned pharmaceuticals are prepared with physiological saline for feeding into the stomach. 9.2 Experimental animals: ICR mice, male, 20.0±1 g of body weight, secondary, are provided by the Experimental Animal Science Department of Capital Medical University, Beijing. The quality certificate number of mice is SOCK (DING) 2006-2008. […] The pharmaceuticals are fed into mouse's stomach once every day. After 1 hour of the last administration of drug on the eighth day, the mouse's tail (1 cm to the tail end) is taped on the horizontal support in an opened box, and the mouse represents the reversed hung status. The mouse head is away from the bottom of the opened box for about 10 cm, and the mouse is hung up for 6 minutes. The time of non-movement of the mouse for the last 5 minutes is recorded. 9.5 Statistic calculation: The experimental data are represented as X±SD, and the experimental result is calculated as one-way ANOVA by SPSS 11.5 statistic software.

ICR mice [4] = test: Mouse tail-hanging test of the debris mixture (Experiment 11); conditions: 3 mg/kg P.O. 7 days; 1 h after last dose; last 5 of 6 min
From the text: Nine (9) kg of the remained ginseng debris, 7 kg of the remained liquorice debris and 0.9 kg of the jujuba debris from the Embodiments 1 and 4 extraction procedures are collected, dried, pulverized, and mixed well for obtaining the debris mixture containing the trace amount of ginsenoside Rg1 and Rb1, glycyrrhizic acid and jujuba cAMP. The control experiment of examining the influence of the debris in the mouse tail-hanging test is proceeded. 11.1 Experimental animals: ICR mice, male, 22.0±2 g of body weight, secondary, are provided by the Experimental Animal Science Department of Capital Medical University, Beijing. 11.2 Experiment pharmaceuticals: The debris mixture is provided by Beijing Wonner Biotech. […] High dose of debris mixture (160 mg/kg/d); 2. middle dose of debris mixture (80 mg/kg/d); and 3. low dose of debris mixture (40 mg/kg/d). 11.5.1 Group division and administration of drug: The mice are grouped randomly with 10 mice in each group. 1. […] The time of non-movement of the mouse for the last 5 minutes is recorded. 11.5.3 Statistic calculation: The experimental data are represented as X±SD, and the experimental result is calculated as ANOVA by SPSS 11.5 statistic software.

Question: What does the source list for `Fc1ccc([C@@H]2CCNC[C@H]2COc2ccc3c(c2)OCO3)cc1` [Paroxetine]?
Answer: Time of non-movement (ICR mice [1]; 3 mg/kg P.O. 7 days, 1 h after last dose, last 5 of 6 min): 75.33 ± 22.91 s; Effect on time of non-movement after the mouse's tail is hung up (in words) (ICR mice [1]; high and middle doses of Embodiment 1, Paroxetine, significantly different from control): decrease the time of non-movement; Decreased temperature (ICR mice [2]; 3 mg/kg P.O. 7 days, 4 h after Resetpine 2 mg/kg i.p.): 2.38 ± 0.69 °C; Effect on reduced body temperature induced by Resetpine (in words) (ICR mice [2]; middle dose of Embodiment 2, Paroxetine): decrease the reduced body temperature induced by Resetpine; Time of non-movement (ICR mice [3]; 3 mg/kg/d into the stomach, 1 h after last dose on the eighth day, last 5 of 6 min): 53.27 ± 20.02 s; Effect on accumulative time of non-movement, tail-hanging (in words) (ICR mice [3]; high, middle and low doses of Embodiment 5, Paroxetine): obviously decrease the accumulative time of non-movement; Time of non-movement (ICR mice [4]): 38.37 ± 20.76 s
